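Step 1: Grow cells in 96-well plates. Step 2: Expose to compound for 48 hours at 5 concentrations. Step 3: Interpolate endpoints linearly; if unreached, use highest concentration. GI50 = concentration required for 50% inhibition of growth.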 The source made the active and inactive calls. Cut-off read from the data, not from the text of the source: active = GI50 up to about 1.1 µM and inactive = higher.
What was measured:
Assay in all cases: NCI anticancer screen, dose series, 48 h
HT-29 = tested on: HT-29
OVCAR-4 = tested on: OVCAR-4
M14 = tested on: M14
SK-MEL-5 = tested on: SK-MEL-5
HOP-62 = tested on: HOP-62
NCI-H23 = tested on: NCI-H23
TK-10 = tested on: TK-10
COLO 205 = tested on: COLO 205
HCC 2998 = tested on: HCC 2998
786-0 = tested on: 786-0
SK-OV-3 = tested on: SK-OV-3
SF-295 = tested on: SF-295
HCT-15 = tested on: HCT-15
SNB-19 = tested on: SNB-19
UACC-257 = tested on: UACC-257
SF-268 = tested on: SF-268
SF-539 = tested on: SF-539
CAKI-1 = tested on: CAKI-1

SMILES | GI50 (HT-29) | GI50 (OVCAR-4) | GI50 (M14) | GI50 (SK-MEL-5) | GI50 (HOP-62) | GI50 (NCI-H23) | GI50 (TK-10) | GI50 (COLO 205) | GI50 (HCC 2998) | GI50 (786-0) | GI50 (SK-OV-3) | GI50 (SF-295) | GI50 (HCT-15) [µM] | GI50 (SNB-19) | GI50 (UACC-257) | GI50 (SF-268) | GI50 (SF-539) | GI50 (CAKI-1)
CN(C)/C=C/C(=O)c1cccc(C(=O)/C=C/N(C)C)n1 | > 100 µM (inactive) | > 100 µM (inactive) | > 100 µM (inactive) | > 100 µM (inactive) | > 100 µM (inactive) | > 100 µM (inactive) | > 100 µM (inactive) | > 100 µM (inactive) | > 100 µM (inactive) | > 100 µM (inactive) | > 100 µM (inactive) | > 100 µM (inactive) | > 100 | > 100 µM (inactive) | > 100 µM (inactive) | > 100 µM (inactive) | > 100 µM (inactive) | –
O=c1c2ccccc2nc(-c2cccc(Cl)c2)n1NCC1(O)OCC(O)C(O)C1O (centres undefined) | > 100 µM (inactive) | > 100 µM (inactive) | > 100 µM (inactive) | > 10 µM (inactive) | – | > 100 µM (inactive) | – | > 100 µM (inactive) | – | > 100 µM (inactive) | > 100 µM (inactive) | > 100 µM (inactive) | > 100 | > 100 µM (inactive) | > 100 µM (inactive) | > 100 µM (inactive) | > 100 µM (inactive) | > 100 µM (inactive)
CCOC(=O)C1=C(C)N(c2ccc(C)cc2)C2=C(C(=O)N(c3ccccc3)C2c2ccccc2)C1c1ccccc1 (centres undefined) | > 25 µM (inactive) | 11.3 µM (inactive) | > 25 µM (inactive) | 16.5 µM (inactive) | > 25 µM (inactive) | 11.9 µM (inactive) | > 25 µM (inactive) | > 25 µM (inactive) | 18.4 µM (inactive) | > 25 µM (inactive) | – | 22.2 µM (inactive) | > 25 | > 25 µM (inactive) | > 25 µM (inactive) | > 25 µM (inactive) | > 25 µM (inactive) | –
N#CC(C#N)=CSc1ccccc1 | 28.6 µM (inactive) | 47 µM (inactive) | 22.9 µM (inactive) | 28.5 µM (inactive) | 55 µM (inactive) | 57.4 µM (inactive) | 38 µM (inactive) | 24.5 µM (inactive) | – | 16.7 µM (inactive) | 59 µM (inactive) | 35 µM (inactive) | 22.1 | 60 µM (inactive) | 46.2 µM (inactive) | 13.4 µM (inactive) | 20 µM (inactive) | 26.2 µM (inactive)
COc1ccc(/C=C/c2nnc(S)[nH]2)cc1OC | > 100 µM (inactive) | > 100 µM (inactive) | > 100 µM (inactive) | > 100 µM (inactive) | – | > 100 µM (inactive) | > 100 µM (inactive) | – | > 100 µM (inactive) | > 100 µM (inactive) | – | > 100 µM (inactive) | > 100 | > 100 µM (inactive) | > 100 µM (inactive) | > 100 µM (inactive) | > 100 µM (inactive) | > 100 µM (inactive)
O=C1C(Cl)C(c2cc(Br)cc(Br)c2O)N1n1cnc2ccccc2c1=O (centres undefined) | 36.1 µM (inactive) | 9.55 µM (inactive) | 18.3 µM (inactive) | 18.8 µM (inactive) | 24.3 µM (inactive) | 23.8 µM (inactive) | 46.5 µM (inactive) | 29.2 µM (inactive) | 30.2 µM (inactive) | 26.2 µM (inactive) | 13.6 µM (inactive) | 6.76 µM (inactive) | 20.3 | 30.3 µM (inactive) | 18.7 µM (inactive) | 10.7 µM (inactive) | – | 17.7 µM (inactive)
Nc1nc2c(ncn2CC(CO)CC(c2ccccc2)P(=O)(O)O)c(=O)[nH]1 (centres undefined) | > 100 µM (inactive) | – | > 100 µM (inactive) | > 100 µM (inactive) | > 100 µM (inactive) | > 100 µM (inactive) | > 100 µM (inactive) | > 100 µM (inactive) | > 100 µM (inactive) | > 100 µM (inactive) | > 100 µM (inactive) | > 100 µM (inactive) | > 100 | > 100 µM (inactive) | > 100 µM (inactive) | > 100 µM (inactive) | > 100 µM (inactive) | > 100 µM (inactive)

— ChEMBL document CHEMBL1201862, “PubChem BioAssay data set” (2004)
